Test results as given in the supplement of paper PMC10307832.

Key:
Assay in all cases: relative viability (nuclei count vs DMSO), 5 days (fraction); higher = more cells survive
[1] = compound: CC1=CC(=CC=C1)NC2=NC(=CS2)C3=CC=NC=C3 + CS(=O)(=O)CCNCc1ccc(-c2ccc3ncnc(Nc4ccc(OCc5cccc(F)c5)c(Cl)c4)c3c2)o1 [Lapatinib] (partner 2 µM)
How it was run: (§1)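 Lung cancer cell lines were seeded in 1536-well plates and dosed by pin tool the next day, with either a single drug or a fixed anchor-drug dose combined with five library-drug doses (not always all listed) spaced in √10 steps. Five days later, one step fixed the cells and stained their nuclei (final 0.05% Triton X-100, 1% formaldehyde, 1 ug/ml Hoechst), and nuclei were counted on 4× images. Relative viability is the nuclei count in treated wells divided by the count in vehicle wells, and each value is the median of duplicate plates.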

[2] = compound: Cc1ccc(NC(=O)c2ccc(CN3CCN(C)CC3)cc2)cc1Nc1nc(-c2cccnc2)cs1 [Masitinib] + Cc1cc(Nc2cc(N3CCN(C)CC3)nc(Sc3ccc(NC(=O)C4CC4)cc3)n2)n[nH]1 [Tozasertib] (partner 0.1 µM)
How it was run: as §1

[3] = compound: Cc1ccc(NC(=O)c2ccc(CN3CCN(C)CC3)cc2)cc1Nc1nc(-c2cccnc2)cs1 [Masitinib] + Cc1nc(NC(=O)N2CCC[C@H]2C(N)=O)sc1-c1ccnc(C(C)(C)C(F)(F)F)c1 [Alpelisib] (partner 2 µM)
How it was run: as §1

[4] = compound: Cc1ccc(NC(=O)c2ccc(CN3CCN(C)CC3)cc2)cc1Nc1nc(-c2cccnc2)cs1 [Masitinib] + O=C(c1cc(Cc2n[nH]c(=O)c3ccccc23)ccc1F)N1CCN(C(=O)C2CC2)CC1 [Olaparib] (partner 8 µM)
How it was run: as §1

Row | Cell Line | relative viability ([1]; first compound 0.08 µM) | relative viability ([1]; first compound 0.253 µM) | relative viability ([1]; first compound 0.8 µM) | relative viability ([1]; first compound 2.53 µM) | relative viability ([1]; first compound 8 µM) | relative viability ([2]; first compound 0.01 µM) | relative viability ([2]; first compound 0.03162 µM) | relative viability ([2]; first compound 0.1 µM) | relative viability ([2]; first compound 0.3162 µM) | relative viability ([2]; first compound 1 µM) | relative viability ([3]; first compound 0.01 µM) | relative viability ([3]; first compound 0.03162 µM) | relative viability ([3]; first compound 0.1 µM) | relative viability ([3]; first compound 0.3162 µM) | relative viability ([3]; first compound 1 µM) | relative viability ([4]; first compound 0.01 µM) | relative viability ([4]; first compound 0.03162 µM) | relative viability ([4]; first compound 0.1 µM) | relative viability ([4]; first compound 0.3162 µM) | relative viability ([4]; first compound 1 µM)
1 | NCI-H727 | 0.489 | 0.777 | 0.674 | 0.706 | 0.668 | 0.691 | 0.597 | 0.69 | 0.664 | 0.548 | 0.652 | 0.657 | 0.517 | 0.603 | 0.74 | 0.76 | 0.774 | 0.686 | 0.819 | 0.676
2 | NCI-H838 | 0.822 | 0.871 | 0.924 | 0.742 | 0.865 | 0.25 | 0.281 | 0.273 | 0.206 | 0.236 | 0.912 | 0.865 | 0.992 | 0.769 | 0.957 | 0.835 | 0.739 | 0.83 | 0.638 | 0.832
3 | NCI-H1355 | 0.723 | 0.713 | 0.652 | 0.656 | 0.651 | 0.534 | 0.469 | 0.561 | 0.384 | 0.394 | 0.857 | 0.707 | 0.938 | 0.668 | 0.731 | 0.727 | 0.665 | 0.754 | 0.521 | 0.761
4 | NCI-H1395 | 0.882 | 0.733 | 0.982 | 0.761 | 0.818 | 0.713 | 0.678 | 0.828 | 0.782 | 0.624 | 1.12 | 1.01 | 1.1 | 1.16 | 1.09 | 0.473 | 0.465 | 0.471 | 0.422 | 0.432
5 | NCI-H1437 | 0.772 | 0.626 | 0.684 | 0.479 | 0.545 | 0.399 | 0.454 | 0.4 | 0.426 | 0.36 | 0.918 | 0.979 | 1.01 | 1.08 | 0.962 | 0.623 | 0.603 | 0.668 | 0.616 | 0.61
6 | NCI-H1651 | 0.721 | 0.704 | 0.865 | 0.713 | 0.781 | 0.743 | 0.68 | 0.685 | 0.484 | 0.583 | 0.841 | 1.01 | 0.99 | 0.947 | 1 | 0.155 | 0.216 | 0.177 | 0.181 | 0.169
7 | NCI-H1666 | 0.245 | 0.24 | 0.256 | 0.283 | 0.241 | – | 0.495 | 0.586 | 0.58 | 0.585 | 0.92 | 1.05 | 0.943 | 0.706 | 0.99 | 0.736 | 0.716 | 0.724 | 0.695 | 0.73
8 | NCI-H1734 | 0.896 | 1.02 | 1.04 | 0.932 | 0.928 | 0.285 | 0.27 | 0.318 | 0.276 | 0.272 | 0.616 | 0.715 | 0.764 | 0.383 | 0.658 | 0.557 | 0.564 | 0.623 | 0.618 | 0.6
